Measurements as given in patent publication US20250161223A1, “PHARMACEUTICAL FORMULATION” (Novartis AG, priority 2022, published 2025).

Assays:
[1] = Solid form conversion of slurry in water; type: physicochemical; details: 30% w/w slurry in water; after 5 hrs
Text: WG based core tablets can easily be converted into film-coated tablets with conventional coating operations. […] Looking at an unknown landscape of polymorphs for TNO155, WG was not pursued further.

[2] = Chemical compatibility study of drug substance alone and binary mixtures (HPLC); type: physicochemical; details: 4 weeks, 40° C./75% RH
Description: For HPLC in Table 1, the following conditions were applied: • Mobile Phase A: 0.1% Trifluoroacetic acid in Water. • Mobile Phase B: Water:Acetonitrile(50:950 v/v) • Column: Aquity HSS T3, • Column Dimension: Length—100 mm, Internal Diameter—2.1 mm, Particle size—1.8 μm • Flow Rate: 0.5 mL/min • Detection: 220 nm • Column Temperature: 40° C. • Auto sampler Temperature: 22° C. • Injection Volume: 4 μL • Run Time: 13.0 minutes • Program: Gradient […] All excipients except PVP-K30 may still be suitable for formulation when used in ratios more realistic in a final formulation (see Example 2).

C[C@@H]1OCC2(CCN(c3cnc(Sc4ccnc(N)c4Cl)c(N)n3)CC2)[C@@H]1N [TNO155-BBA, (3S,4S)-8-(6-amino-5-((2-amino-3-chloropyridin-4-yl)thio)pyrazin-2-yl)-3-methyl-2-oxa-8-azaspiro[4.5]decan-4-amine succinate (1:1) hemihydrate form HA]
Solid form stability in slurry [1]: solid form conversion
Assay of active ingredient ([2]; closed): 98.6%
Assay of active ingredient ([2]; open): 98.7%
